Measurements as given in patent publication US11291656B2, “Pramipexole transdermal delivery system and uses thereof” (TRANSWELL BIOTECH CO., LTD., priority 2016, dated 2022).
In brackets after ≈: the same amount, converted by molar mass. Read-outs that look alike come from different tables or passages of the source.

Legend:
physchem = assay: physchem
Protocol: Numerous permeation enhancers were evaluated to identify suitable permeation enhancers, including permeation enhancers listed in Table 4 below that lists solubility of pramipexole in the respective permeation enhancers.

solubility (physchem; Brij 30, organic solvent or mixture): 111 mg/mL (≈ 526 mM)
solubility (physchem; Transcutal P, organic solvent or mixture): 122 mg/mL (≈ 577 mM)
solubility (physchem; Tween 80, organic solvent or mixture): 86.1 mg/mL (≈ 407 mM)
solubility (physchem; ethyl acetate, organic solvent or mixture): 34.3 mg/mL (≈ 162 mM)
solubility (physchem; isopropyl alcohol, organic solvent or mixture): 107 mg/mL (≈ 505 mM)
solubility (physchem; limonene, organic solvent or mixture): 5.34 mg/mL (≈ 25.3 mM)
solubility (physchem; methanol, organic solvent or mixture): 100 mg/mL (≈ 474 mM)
solubility (physchem; methyl laurate, oil or lipid): 7.07 mg/mL (≈ 33.5 mM)
solubility (physchem; octanol, organic solvent or mixture): 113 mg/mL (≈ 535 mM)
solubility (physchem; oleic acid, oil or lipid): 59 mg/mL (≈ 279 mM)
solubility (physchem; oleyl alcohol, oil or lipid): 113 mg/mL (≈ 535 mM)
solubility (physchem; propylene glycol (PG), organic solvent or mixture): 55.6 mg/mL (≈ 263 mM)
API solubility (in adhesive DURO-TAK 87-2054 (acrylate-vinylacetate, —COOH)): adequate solubility
API solubility (in adhesive DURO-TAK 87-2054 (acrylate-vinylacetate, —COOH), listed as API): 10%
API solubility (in adhesive DURO-TAK 87-2510 (Acrylic, —OH)): adequate solubility
API solubility (in adhesive DURO-TAK 87-2510 (Acrylic, —OH), listed as API): 5%
API solubility (in adhesive DURO-TAK 87-2979 (acrylate-vinylacetate, —COOOH/—OH)): adequate solubility
API solubility (in adhesive DURO-TAK 87-2979 (acrylate-vinylacetate, —COOOH/—OH), listed as API): 10%
API solubility (in adhesive DURO-TAK 87-4287 (acrylate-vinylacetate, —OH)): adequate solubility
API solubility (in adhesive DURO-TAK 87-4287 (acrylate-vinylacetate, —OH), listed as API): 8%
Compound: CCCN[C@H]1CCc2nc(N)sc2C1 [Pramipexole]
